From patent US20240239755A1, “SUBSTITUTED PYRIDAZINONES, SALTS OR N-OXIDES THEREOF AND THEIR USE AS HERBICIDALLY ACTIVE SUBSTANCES” (Bayer Aktiengesellschaft, priority 2021, published 2024)

Columns and labels:
Type in all cases: in vivo
[1] = tested on: Setaria viridis (SETVI); assay: Herbicidal pre-emergence action, 1280 g/ha (Table A8); details: visual grading after ca. 3 weeks vs untreated controls
Source text: (§1) Seeds of mono- and dicotyledonous weed plants were sown in plastic pots (double sowings with one species of mono- and one species of dicotyledonous weed plants per pot), in sandy loam, and covered with soil. The compounds according to the invention, formulated in the form of wettable powders (WP) or as emulsifiable concentrates (EC), were applied to the surface of the covering soil as an aqueous suspension or as an emulsion, with the addition of 0.5% of an additive, at an application rate of 600 litres of water per hectare (converted). Following treatment, the pots were placed in a greenhouse and kept under optimum growth conditions for the test plants. The visual grading of the damage to the test plants was carried out after ca. 3 weeks in comparison to untreated controls (herbicidal effect in percent (%): 100% effect=plants have died, 0% effect=as control plants). Tables A1 to A11 below, show the effects of selected compounds of the general formula (I) according to Table 1 on various harmful plants and an application rate corresponding to 1280 g/ha obtained by the experimental procedure mentioned above.

[2] = tested on: Kochia scoparia (KCHSC); assay: Herbicidal post-emergence action, 320 g/ha, KCHSC; details: visual grading after ca. 3 weeks
Source text: (§2) Seeds of mono- and dicotyledonous weed plants were sown in plastic pots (double sowings with one species of mono- and one species of dicotyledonous weed plants per pot), in sandy loam, covered with soil and grown under controlled growth conditions. 2 to 3 weeks after sowing, the test plants were sprayed in the single-leaf stage. The compounds according to the invention, formulated in the form of wettable powders (WP) or as emulsifiable concentrates (EC), were sprayed onto the green plant parts as an aqueous suspension or as an emulsion, with the addition of 0.5% of an additive, at an application rate of 600 litres of water per hectare (converted). The test plants were placed in the greenhouse for ca. 3 weeks under optimum growth conditions, and then the effect of the preparations was assessed visually in comparison with untreated controls (herbicidal effect in percent (%): 100% effect=plants have died, 0% effect=as control plants).
(§3) Tables D1 to D8 below, show the effects of selected compounds of the general formula (I) according to Table 1 on various harmful plants using an application rate corresponding to 320 g/ha obtained by the experimental procedure mentioned above.

[3] = tested on: Amaranthus retroflexus (AMARE); assay: Herbicidal pre-emergence action, 1280 g/ha (Table A11); details: visual grading after ca. 3 weeks vs untreated controls
Source text: as §1

[4] = tested on: Lolium rigidum (LOLRI); assay: Herbicidal pre-emergence action, 1280 g/ha (Table A5); details: visual grading after ca. 3 weeks vs untreated controls
Source text: as §1

[5] = tested on: Stellaria media (STEME); assay: Herbicidal post-emergence action, 320 g/ha, STEME; details: visual grading after ca. 3 weeks
Source text: as §2, §3

[6] = tested on: Matricaria inodora (MATIN); assay: Herbicidal post-emergence action, 320 g/ha, MATIN; details: visual grading after ca. 3 weeks
Source text: as §2, §3

[7] = tested on: Amaranthus retroflexus (AMARE); assay: Herbicidal post-emergence action, 320 g/ha, AMARE; details: visual grading after ca. 3 weeks
Source text: as §2, §3

[8] = tested on: Veronica persica (VERPE); assay: Herbicidal post-emergence action, 1280 g/ha, VERPE; details: visual grading vs untreated controls
Source text: as §2
(§4) Tables B1 to B11 below, show the effects of selected compounds of the general formula (I) according to Table 1 on various harmful plants using an application rate corresponding to 1280 g/ha obtained by the experimental procedure mentioned above.

[9] = tested on: Veronica persica (VERPE); assay: Herbicidal post-emergence action, 320 g/ha, VERPE; details: visual grading after ca. 3 weeks
Source text: as §2, §3

[10] = tested on: Stellaria media (STEME); assay: Herbicidal post-emergence action, 1280 g/ha (Table B9); details: visual assessment after ca. 3 weeks vs untreated controls
Source text: as §2, with “plants). Tables B1 to B11 below, show the effects of selected compounds of the general formula (I) according to Table 1 on various harmful plants using an application rate corresponding to 1280 g/ha obtained by the experimental procedure mentioned above.” for “plants).”

[11] = tested on: Abutilon theophrasti (ABUTH); assay: Herbicidal post-emergence action, 1280 g/ha (Table B1); details: visual assessment after ca. 3 weeks vs untreated controls
Source text: as §2, with “plants). Tables B1 to B11 below, show the effects of selected compounds of the general formula (I) according to Table 1 on various harmful plants using an application rate corresponding to 1280 g/ha obtained by the experimental procedure mentioned above.” for “plants).”

[12] = tested on: Stellaria media (STEME); assay: Herbicidal pre-emergence action, 1280 g/ha (Table A9); details: visual grading after ca. 3 weeks vs untreated controls
Source text: as §1

[13] = tested on: Kochia scoparia (KCHSC); assay: Herbicidal post-emergence action, 1280 g/ha (Table B4); details: visual assessment after ca. 3 weeks vs untreated controls
Source text: as §2, with “plants). Tables B1 to B11 below, show the effects of selected compounds of the general formula (I) according to Table 1 on various harmful plants using an application rate corresponding to 1280 g/ha obtained by the experimental procedure mentioned above.” for “plants).”

[14] = tested on: Kochia scoparia (KCHSC); assay: Herbicidal pre-emergence action, 1280 g/ha (Table A4); details: visual grading after ca. 3 weeks vs untreated controls
Source text: as §1

[15] = tested on: Lolium rigidum (LOLRI); assay: Herbicidal post-emergence action, 1280 g/ha (Table B5); details: visual assessment after ca. 3 weeks vs untreated controls
Source text: as §2, with “plants). Tables B1 to B11 below, show the effects of selected compounds of the general formula (I) according to Table 1 on various harmful plants using an application rate corresponding to 1280 g/ha obtained by the experimental procedure mentioned above.” for “plants).”

[16] = tested on: Amaranthus retroflexus (AMARE); assay: Herbicidal post-emergence action, 1280 g/ha, AMARE; details: visual grading vs untreated controls
Source text: as §2, §4

[17] = tested on: Matricaria inodora (MATIN); assay: Herbicidal post-emergence action, 1280 g/ha (Table B6); details: visual assessment after ca. 3 weeks vs untreated controls
Source text: as §2, with “plants). Tables B1 to B11 below, show the effects of selected compounds of the general formula (I) according to Table 1 on various harmful plants using an application rate corresponding to 1280 g/ha obtained by the experimental procedure mentioned above.” for “plants).”

[18] = tested on: Matricaria inodora (MATIN); assay: Herbicidal pre-emergence action, 1280 g/ha (Table A6); details: visual grading after ca. 3 weeks vs untreated controls
Source text: as §1

[19] = tested on: Abutilon theophrasti (ABUTH); assay: Herbicidal post-emergence action, 320 g/ha, ABUTH; details: visual grading after ca. 3 weeks
Source text: as §2, §3

[20] = tested on: Abutilon theophrasti (ABUTH); assay: Herbicidal pre-emergence action, 1280 g/ha (Table A1); details: visual grading after ca. 3 weeks vs untreated controls
Source text: as §1

[21] = tested on: Lolium rigidum (LOLRI); assay: Herbicidal pre-emergence action, 320 g/ha (Table C2); details: visual grading after ca. 3 weeks vs untreated controls
Source text: as §1, with “Tables C1” for “Tables A1”, “to C6” for “to A11”, “plants using” for “plants and”, “to 320” for “to 1280”

[22] = tested on: Stellaria media (STEME); assay: Herbicidal pre-emergence action, 320 g/ha, STEME; details: visual grading after ca. 3 weeks
Source text: as §1, with “plants).” for “plants). Tables A1 to A11 below, show the effects of selected compounds of the general formula (I) according to Table 1 on various harmful plants and an application rate corresponding to 1280 g/ha obtained by the experimental procedure mentioned above.”
Tables C1 to C6 below, show the effects of selected compounds of the general formula (I) according to Table 1 on various harmful plants using an application rate corresponding to 320 g/ha obtained by the experimental procedure mentioned above.

[23] = tested on: Lolium rigidum (LOLRI); assay: Herbicidal post-emergence action, 320 g/ha, LOLRI; details: visual grading after ca. 3 weeks
Source text: as §2, §3

Structure (SMILES)	herbicidal effect SETVI [1]	herbicidal effect AMARE [3]	herbicidal effect LOLRI [4]	herbicidal effect STEME [5]	herbicidal effect MATIN [6]	herbicidal effect AMARE [7]	herbicidal effect VERPE [8]	herbicidal effect VERPE [9]	herbicidal effect STEME [10]	herbicidal effect ABUTH [11]	herbicidal effect STEME [12]	herbicidal effect KCHSC [13]	herbicidal effect KCHSC [14]	herbicidal effect LOLRI [15]	herbicidal effect AMARE [16]	herbicidal effect MATIN [17]	herbicidal effect MATIN [18]	herbicidal effect ABUTH [19]	herbicidal effect LOLRI [23]	further results
CCOC(=O)Oc1c(C)nn(C)c(=O)c1Oc1ccccc1C(F)(F)F [Example I-009, [1,3-dimethyl-6-oxo-5-[2-(trifluoromethyl)phenoxy]pyridazin-4-yl] ethyl carbonate]	100%	–	–	–	–	–	–	–	–	–	–	–	–	–	–	–	–	–	–	–
CCOC(=O)Oc1c(C)nn(C)c(=O)c1Oc1ccccc1OC(F)(F)F [Example I-013]	–	90%	100%	100%	90%	90%	100%	90%	100%	100%	100%	100%	90%	100%	90%	100%	100%	–	–	herbicidal effect KCHSC [2]: 100%
Cc1nn(C)c(=O)c(Oc2cc(F)ccc2C2CC2)c1O [Example I-046]	–	90%	100%	90%	90%	90%	100%	90%	100%	100%	100%	90%	–	100%	100%	100%	90%	100%	–	herbicidal effect ABUTH [20]: 90%; herbicidal effect LOLRI [21]: 90%; herbicidal effect STEME [22]: 100%
CCOC(=O)Oc1c(C)nn(C)c(=O)c1Oc1cccc(F)c1C1CC1 [Example I-058]	–	–	90%	90%	–	90%	90%	–	90%	100%	90%	100%	90%	100%	90%	100%	–	90%	90%	herbicidal effect KCHSC [2]: 90%
Cc1nn(C)c(=O)c(Oc2cc(Cl)ccc2C2CC2)c1O [Example I-071]	90%	–	100%	90%	–	90%	90%	–	100%	100%	90%	–	–	–	100%	–	100%	100%	–	herbicidal effect ABUTH [20]: 90%
CC(=O)Oc1c(C)nn(C)c(=O)c1Oc1ccccc1OC(F)F [Example I-081]	–	–	90%	90%	90%	90%	100%	–	90%	100%	90%	100%	–	90%	100%	100%	90%	90%	90%	–
CCOC(=O)Oc1c(C)nn(C)c(=O)c1Oc1c(F)cccc1C1CC1 [Example I-085]	–	–	100%	100%	–	90%	100%	90%	100%	100%	90%	100%	–	100%	100%	100%	–	90%	90%	–
Cc1nn(C)c(=O)c(Oc2cc(F)c(F)cc2C2CC2)c1O [Example I-101]	90%	100%	100%	90%	–	90%	100%	90%	100%	100%	100%	90%	100%	90%	100%	90%	100%	90%	–	herbicidal effect LOLRI [21]: 90%
